According to patent US9453026B2, “ACC inhibitors and uses thereof” (Gilead Apollo, Inc., priority 2011, dated 2016):
pIC50: −log10 of the molar value.

Experiments:
ACC1 = ACC1 (Homo sapiens, UniProt Q13085); assay: In vitro ACC1 inhibition assay (ADP-Glo); assay type: biochemical; settings: read-out: ACC1
Method: An exemplary procedure for the in vitro ACC inhibition assay, which can be used to determine the inhibitory action of compounds of the invention toward either ACC1 or ACC2, follows. The ADP-Glo™ Kinase Assay kit from Promega was used. The ADP-Glo™ Kinase Assay is a luminescent ADP detection assay to measure enzymatic activity by quantifying the amount of ADP produced during an enzyme reaction. The assay is performed in two steps; first, after the enzyme reaction, an equal volume of ADP-Glo™ Reagent is added to terminate the reaction and deplete the remaining ATP. Second, the Kinase Detection Reagent is added to simultaneously convert ADP to ATP and allow the newly synthesized ATP to be measured using a luciferase/luciferin reaction. Luminescence can be correlated to ADP concentrations by using an ATP-to-ADP conversion curve. The detailed procedure is as follows. 50 μL of the compound being tested (600 uM in DMSO) was added to a 384-well dilution plate. The compound was diluted 1:3 in succession in DMSO for each row for 11 wells. 0.5 μL ACC2 working solution was added to 384-well white Optiplate assay plate. 0.5 μL diluted compound solution in each column from step 2 to assay plate, each row containing 2 replicates. […] The plates were incubated at room temperature for 15 minutes. 5 μL substrate working solution was added to each well to initiate reaction. […] Plates were incubated at room temperature for 60 minutes. 10 μL ADP glo reagent was added. Plates were incubated at room temperature for 40 minutes. 20 μL kinase detection reagent was added.
Data for each concentration, as well as the positive and negative controls were averaged, and the standard deviation calculated. Percent inhibition was calculated by the formula: 100× (average negative control−compound)/(average negative control−average positive control). The IC50 for each compound was calculated by fitting the data with a non-linear regression equation: Y=Bottom+(Top-Bottom)/(1+10^((Log IC50−X)*HillSlope)), where X is the log of compound concentration and Y is percent inhibition.
The compound numbers correspond to the compound numbers in Table 1.

ACC2 = ACC2 (Homo sapiens, UniProt O00763); assay: In vitro ACC2 inhibition assay (ADP-Glo); assay type: biochemical; settings: read-out: ACC2
ACC2, sequence (O00763 whole entry, species assumed): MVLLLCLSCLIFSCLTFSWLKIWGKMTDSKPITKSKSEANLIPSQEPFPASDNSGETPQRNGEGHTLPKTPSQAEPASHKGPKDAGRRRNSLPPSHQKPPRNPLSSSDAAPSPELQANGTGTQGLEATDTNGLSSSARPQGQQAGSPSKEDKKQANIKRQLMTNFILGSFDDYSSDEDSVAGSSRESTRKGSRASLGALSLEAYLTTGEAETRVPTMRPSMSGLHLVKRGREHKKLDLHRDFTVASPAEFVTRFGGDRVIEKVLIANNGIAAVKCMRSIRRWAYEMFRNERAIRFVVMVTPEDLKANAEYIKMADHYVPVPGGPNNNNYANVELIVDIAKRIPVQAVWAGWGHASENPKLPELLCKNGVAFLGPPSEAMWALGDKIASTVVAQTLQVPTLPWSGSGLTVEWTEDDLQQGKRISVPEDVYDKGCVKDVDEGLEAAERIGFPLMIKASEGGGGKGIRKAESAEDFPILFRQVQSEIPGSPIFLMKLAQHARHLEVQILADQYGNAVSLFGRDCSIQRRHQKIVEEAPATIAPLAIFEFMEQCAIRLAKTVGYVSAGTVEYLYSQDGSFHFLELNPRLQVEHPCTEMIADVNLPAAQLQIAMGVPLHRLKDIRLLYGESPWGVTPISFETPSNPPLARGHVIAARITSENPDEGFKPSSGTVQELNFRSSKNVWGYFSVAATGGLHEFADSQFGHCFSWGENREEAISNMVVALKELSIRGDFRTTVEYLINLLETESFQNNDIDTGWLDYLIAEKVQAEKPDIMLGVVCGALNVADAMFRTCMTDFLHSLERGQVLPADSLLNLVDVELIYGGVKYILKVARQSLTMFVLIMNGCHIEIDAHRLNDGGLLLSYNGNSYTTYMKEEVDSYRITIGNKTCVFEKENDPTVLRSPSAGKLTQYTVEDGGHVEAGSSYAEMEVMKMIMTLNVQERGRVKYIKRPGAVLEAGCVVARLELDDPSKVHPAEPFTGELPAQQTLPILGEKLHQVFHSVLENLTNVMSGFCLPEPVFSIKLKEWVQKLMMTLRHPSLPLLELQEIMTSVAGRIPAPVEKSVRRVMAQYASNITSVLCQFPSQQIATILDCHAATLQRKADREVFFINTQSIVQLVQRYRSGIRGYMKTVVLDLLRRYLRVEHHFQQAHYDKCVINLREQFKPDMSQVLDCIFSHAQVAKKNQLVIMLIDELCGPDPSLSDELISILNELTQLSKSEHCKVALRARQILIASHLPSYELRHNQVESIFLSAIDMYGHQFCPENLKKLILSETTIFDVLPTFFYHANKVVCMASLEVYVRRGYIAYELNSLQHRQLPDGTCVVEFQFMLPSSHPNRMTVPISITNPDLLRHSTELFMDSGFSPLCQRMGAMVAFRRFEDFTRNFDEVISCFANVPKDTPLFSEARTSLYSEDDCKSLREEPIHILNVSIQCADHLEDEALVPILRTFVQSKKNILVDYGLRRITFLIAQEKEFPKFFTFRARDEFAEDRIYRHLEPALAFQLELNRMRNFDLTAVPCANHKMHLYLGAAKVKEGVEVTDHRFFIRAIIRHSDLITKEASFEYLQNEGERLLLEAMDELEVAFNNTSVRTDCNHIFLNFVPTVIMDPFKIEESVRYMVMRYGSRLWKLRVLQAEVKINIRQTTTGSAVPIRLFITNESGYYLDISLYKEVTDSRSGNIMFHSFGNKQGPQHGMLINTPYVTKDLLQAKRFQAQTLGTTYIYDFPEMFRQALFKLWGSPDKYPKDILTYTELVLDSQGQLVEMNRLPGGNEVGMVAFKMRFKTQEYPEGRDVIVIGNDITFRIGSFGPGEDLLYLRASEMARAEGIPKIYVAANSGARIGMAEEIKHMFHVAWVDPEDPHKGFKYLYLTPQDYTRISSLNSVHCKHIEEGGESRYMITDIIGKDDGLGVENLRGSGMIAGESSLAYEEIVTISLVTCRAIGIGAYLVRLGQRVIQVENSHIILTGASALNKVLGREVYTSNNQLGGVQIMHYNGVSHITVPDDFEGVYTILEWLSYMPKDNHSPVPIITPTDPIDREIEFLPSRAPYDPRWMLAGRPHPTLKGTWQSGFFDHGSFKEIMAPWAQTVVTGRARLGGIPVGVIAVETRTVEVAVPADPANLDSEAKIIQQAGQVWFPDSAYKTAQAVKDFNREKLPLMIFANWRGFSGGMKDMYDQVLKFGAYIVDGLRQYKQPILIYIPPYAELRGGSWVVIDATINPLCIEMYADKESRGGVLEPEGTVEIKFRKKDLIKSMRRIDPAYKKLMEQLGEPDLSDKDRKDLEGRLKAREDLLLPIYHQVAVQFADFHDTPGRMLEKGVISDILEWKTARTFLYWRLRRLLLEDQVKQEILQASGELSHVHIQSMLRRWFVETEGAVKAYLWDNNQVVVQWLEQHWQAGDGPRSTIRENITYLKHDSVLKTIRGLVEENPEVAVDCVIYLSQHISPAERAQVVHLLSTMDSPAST
Summary of the method: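 Enzyme (human ACC1 or ACC2) and compound, serially diluted 1:3 over 11 points from a 600 uM DMSO stock, were preincubated 15 min before substrate addition.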

Row | pIC50 (ACC1) | pIC50 (ACC2) | Structure (SMILES)
1 | > 6.00 |  | Cc1c(-c2ncco2)sc2c1c(=O)n(C(C)(C)C(=O)N1CCC1)c(=O)n2C[C@H](OC1CCOCC1)c1ccccc1Cl [I-253, 3-[1-(azetidin-1-yl)-2-methyl-1-oxopropan-2-yl]-1-[(2R)-2-(2-chlorophenyl)-2-(oxan-4-yloxy)ethyl]-5-methyl-6-(1,3-oxazol-2-yl)-1H,2H,3H,4H-thieno[2,3-d]pyrimidine-2,4-dione]
2 | > 7.00 |  | COc1ccccc1[C@H](Cn1c(=O)n(C(C)(C)C(=O)N2CCC2)c(=O)c2c(C)c(-c3ncco3)sc21)OCC1CCOCC1 [I-275, 3-[1-(azetidin-1-yl)-2-methyl-1-oxopropan-2-yl]-1-[(2R)-2-(2-methoxyphenyl)-2-(oxan-4-ylmethoxy)ethyl]-5-methy-6-(1,3-oxazol-2-yl)-1H,2H,3H,4H-thieno[2,3-d]pyrimidine-2,4-dione]
3 | > 7.00 |  | Cc1c(-c2ncco2)sc2c1c(=O)n(C(C)(C)C(=O)N1CCC1)c(=O)n2C[C@H](OC1CCOCC1)c1ccccc1O [I-284, 3-[1-(azetidin-1-yl)-2-methyl-1-oxopropan-2-yl]-1-[(2R)-2-(2-hydroxyphenyl)-2-(oxan-4-yloxy)ethyl]-5-methyl-6-(1,3-oxazol-2-yl)-1H,2H,3H,4H-thieno[2,3-d]pyrimidine-2,4-dione]
4 | > 6.00 |  | COc1ccccc1[C@@H](O)Cn1c(=O)n(C(C)(C)C(=O)O)c(=O)c2c(C)c(-c3ncco3)sc21 [I-248, 2-[1-[(2R)-2-hydroxy-2-(2-methoxyphenyl)ethyl]-5-methyl-6-(1,3-oxazol-2-yl)-2,4-dioxo-1H,2H,3H,4H-thieno[2,3-d]pyrimidin-3-yl]-2-methylpropanoic acid]
5 | > 7.00 |  | Cc1c(-c2ncco2)sc2c1c(=O)n(C(C)(C)C(=O)O)c(=O)n2C[C@H](OC1CCOCC1)c1ccccc1O [I-273, 2-[1-[(2R)-2-(2-hydroxyphenyl)-2-(oxan-4-yloxy)ethyl]-5-methyl-6-(1,3-oxazol-2-yl)-2,4-dioxo-1H,2H,3H,4H-thieno[2,3-d]pyrimidin-3-yl]-2-methylpropanoic acid]
6 | > 5.30 |  | COc1cc(Br)ccc1[C@H](Cn1c(=O)n(C(C)(C)C(=O)O)c(=O)c2c(C)c(-c3ncco3)sc21)OC1CCOCC1 [I-270, 2-[1-[(2R)-2-(4-bromo-2-methoxyphenyl)-2-(oxan-4-yloxy)ethyl]-5-methyl-6-(1,3-oxazol-2-yl)-2,4-dioxo-1H,2H,3H,4H-thieno[2,3-d]pyrimidin-3-yl]-2-methylpropanoic acid]
7 | > 7.00 |  | Cc1c(-c2ncco2)sc2c1c(=O)n(C(C)(C)C(N)=O)c(=O)n2C[C@H](OC1CCOCC1)c1ccccc1O [I-283, 2-[1-[(2R)-2-(2-hydroxyphenyl)-2-(oxan-4-yloxy)ethyl]-5-methyl-6-(1,3-oxazol-2-yl)-2,4-dioxo-1H,2H,3H,4H-thieno[2,3-d]pyrimidin-3-yl]-2-methylpropanamide]
8 | > 6.00 |  | Cc1c(-c2ncco2)sc2c1c(=O)n(C(C)(C)C(=O)O)c(=O)n2C[C@H](OC(C)C)c1ccccc1OC(F)(F)F [I-265, (R)-2-(1-(2-isopropoxy-2-(2-(trifluoromethoxy)phenyl)ethyl)-5-methyl-6-(oxazol-2-yl)-2,4-doxo-1,2-dihydrotheno[2,3-d]pyrimidin-3(4H)-yl)-2-methylpropanoic acid]
9 | > 6.00 |  | Cc1c(-c2ncco2)sc2c1c(=O)n(C(C)(C)C(=O)O)c(=O)n2C[C@H](OC1CCOCC1)c1ccccc1C(F)(F)F [I-266, 2-methyl-2-[5-methyl-1-[(2R)-2-(oxan-4-yloxy)-2-[2-(trifluoromethyl)phenyl]ethyl]-6-(1,3-oxazol-2-yl)-2,4-dioxo-1H,2H,3H,4H-thieno[2,3-d]pyrimidin-3-yl]propanoic acid]
10 |  | > 5.30 | Cc1c(-c2ncco2)sc2c1c(=O)n(C(C)(C)C(=O)O)c(=O)n2C[C@H](OC1CCC(C)(C)CC1)c1ccccc1 [I-148, 2-[1-[(2R)-2-[(4,4-dimethylcyclohexyl)oxy]-2-phenylethyl]-5-methyl-6-(1,3-oxazol-2-yl)-2,4-dioxo-1H,2H,3H,4H-thieno[2,3-d]pyrimidin-3-yl]-2-methylpropanoic acid]
11 |  | > 6.00 | Cc1c(-c2ncco2)sc2c1c(=O)n(C(C)(C)C(=O)O)c(=O)n2C[C@H](O[C@H]1CCC[C@@H](O)C1)c1ccccc1 [I-173, 2-(1-((R)-2-(((1S,3R)-3-hydroxycyclohexyl)oxy)-2-phenylethyl)-5-methyl-6-(oxazol-2-yl)-2,4-dioxo-1,2-dihydrothieno[2,3-d]pyrimidin-3(4H)-yl)-2-methylpropanoic acid]
12 |  | > 5.30 | Cc1c(-c2ncco2)sc2c1c(=O)n(C(C)(C)C(=O)O)c(=O)n2C[C@@H](Oc1ccc(-n2ccnc2)cc1)c1ccccc1 [I-161, 2-[1-[(2S)-2-[4-(1H-Imidazol-1-yl)phenoxy]-2-phenylethyl]-5-methyl-6-(1,3-oxazol-2-yl)-2,4-dioxo-1H,2H,3H,4H-thieno[2,3-d]pyrimidin-3-yl]-2-methylpropanoic acid]
13 |  | < 4.30 | CCOC(=O)c1sc2c(c1C)c(=O)n(CC(=O)O)c(=O)n2Cc1ccc2c(c1)OCO2 [I-50, 2-[1-(2H-1,3-benzodioxol-5-ylmethyl)-6-(ethoxycarbonyl)-5-methyl-2,4-dioxo-1H,2H,3H,4H-thieno[2,3-d]pyrimidin-3-yl]acetic acid]
14 |  | < 4.30 | CCOC(=O)c1sc2c(c1C)c(=O)n(CCOCc1ccccc1)c(=O)n2CCc1ccccc1 [I-10, ethyl 3-[2-(benzyloxy)ethyl]-5-methyl-2,4-dioxo-1-(2-phenylethyl)-1H,2H,3H,4H-thieno[2,3-d]pyrimidine-6-carboxylate]
15 |  | < 4.30 | Cc1c(C(=O)NCCO)sc2c1c(=O)n(CCO)c(=O)n2CCc1ccccc1 [I-57]
16 |  | 4.70 to 5.30 | CCOC(=O)c1sc2c(c1C)c(=O)n(C[C@H](C)O)c(=O)n2CCc1ccccc1 [I-82, ethyl 3-[(2S)-2-hydroxypropyl]-5-methyl-2,4-dioxo-1-(2-phenylethyl)-1H,2H,3H,4H-thieno[2,3-d]pyrimidine-6-carboxylate]
17 |  | 4.30 to 4.70 | CCOC(=O)c1sc2c(c1C)c(=O)n(C(C)(C)C(=O)O)c(=O)n2C[C@@H](OC(C)C)c1ccc(I)cc1 [I-126]
18 |  | < 4.30 | CCOC(=O)c1sc2c(c1C)c(=O)n(CCO)c(=O)n2CCC1CCCCC1 [I-28]
19 |  | > 6.00 | Cc1c(-c2ncco2)sc2c1c(=O)n(C(C)(C)C#N)c(=O)n2C[C@H](OC(C)C)c1ccccc1 [I-154, 2-methyl-2-[5-methyl-6-(1,3-oxazol-2-yl)-2,4-dioxo-1-[(2R)-2-phenyl-2-(propan-2-yloxy)ethyl]-1H,2H,3H,4H-thieno[2,3-d]pyrimidin-3-yl]propanenitrile]
20 |  | 4.30 to 4.70 | Cc1c(-n2ccnc2)sc2c1c(=O)n(C(C)(C)C(=O)O)c(=O)n2CCc1ccccc1 [I-118, 2-[6-(1H-imidazol-1-yl)-5-methyl-2,4-dioxo-1-(2-phenylethyl)-1H,2H,3H,4H-thieno[2,3-d]pyrimidin-3-yl]-2-methylpropanoic acid]
21 |  | 4.70 to 5.30 | Cc1c(C2CCC2)sc2c1c(=O)n(C(C)(C)C(=O)O)c(=O)n2CCc1ccccc1 [I-125, 2-[6-cyclobutyl-5-methyl-2,4-dioxo-1-(2-phenylethyl)-1H,2H,3H,4H-thieno[2,3-d]pyrimidin-3-yl]-2-methylpropanoic acid]
22 |  | 4.70 to 5.30 | CCOC(=O)c1sc2c(c1C)c(=O)n(C(C)(C)C(=O)O)c(=O)n2C[C@@H](OC(C)C)c1ccccc1 [I-109, 2-[6-(ethoxycarbonyl)-5-methyl-2,4-dioxo-1-[(2S)-2-phenyl-2-(propan-2-yloxy)ethyl]-1H,2H,3H,4H-thieno[2,3-d]pyrimidin-3-yl]-2-methylpropanoic acid]
23 |  | > 6.00 | Cc1c(-c2ncco2)sc2c1c(=O)n(C(C)(C)C(=O)O)c(=O)n2C[C@H](O[C@H](C)CO)c1ccccc1 [I-184, 2-[1-[(2R)-2-[[(2R)-1-hydroxypropan-2-yl]oxy]-2-phenylethyl]-5-methyl-6-(1,3-oxazol-2-yl)-2,4-dioxo-1H,2H,3H,4H-thieno[2,3-d]pyrimidin-3-yl]-2-methylpropanoic acid]
24 |  | < 4.30 | CCOC(=O)c1sc2c(c1C)c(=O)n(CC(=O)O)c(=O)n2CCc1nc2ccccc2s1 [I-84, 2-[1-[2-(1,3-benzothiazol-2-yl)ethyl]-6-(ethoxycarbonyl)-5-methyl-2,4-dioxo-1H,2H,3H,4H-thieno[2,3-d]pyrimidin-3-yl]acetic acid]
25 |  | 4.70 to 5.30 | CCOC(=O)c1sc2c(c1C)c(=O)n(CC(=O)O)c(=O)n2CCc1ccccc1Br [I-54, 2-[1-[2-(2-bromophenyl)ethyl]-6-(ethoxycarbonyl)-5-methyl-2,4-dioxo-1H,2H,3H,4H-thieno[2,3-d]pyrimidin-3-yl]acetic acid]
